Measurements published in patent US10588935B2, “FC receptor (FcRn) binding peptides and uses thereof” (THE BRIGHAM AND WOMEN'S HOSPITAL, INC., priority 2013, dated 2020).
Several values for one entry are separate records, joined by “and”; a condition that tells them apart may be missing. Equal entries are not always repeated. Where two headings read alike, the source gives them in different places. Bridge positions count the residues as written; N and C are the ends. Peptide text beside a SMILES is read from it.

Molecular target: T1, soluble human FcRn (Homo sapiens, UniProt P55899)
T1 construct: Soluble human FcRn was expressed and purified by Biogen-Idec as previously described (29)
Experiment: SPR (Biacore) affinity of peptides for immobilized soluble human FcRn
Type: binding
Experimental: SPR analyses were conducted using a Biacore 3000 or T100 instrument. Research-grade CM5 sensor chips and all coupling reagents for immobilization were purchased from Biacore. All proteins were cross-linked to the dextran surface of a CM5 sensor chip by standard amine coupling chemistry as recommended by Biacore. […] Binding experiments were performed at pH 6.0 or 7.4 using 50 mM phosphate, 100 mM sodium chloride and 0.01% surfactant P20. […] Bound albumin protein was then allowed to dissociate from the chip for 5 minutes with running buffer. Any remaining albumin was removed from the chip with a 60 second injection (2 cycles) of pH 8.0 Tris-HCl regeneration buffer (1 M Tris pH 8.0) at 25 μL/min flow rate. The binding responses recorded near the end of the association phase were plotted as a function of concentration. Equilibrium dissociation constants (KD), were derived from sensorgrams using the 1:1 binding model of BIAevaluation software 4.1.

[1] = Table 1, pH 6, shFcRn immobilized on the sensor chip, steady state fit, read-out: Kd, pH 6** Biacore
[2] = Table 2, pH 6, immobilized shFcRn, data fit steady state or 2 site, read-out: Kd, pH 6** Biacore
[3] = Table 2, pH 7.4, data only 100 uM, therefore Kd may be higher, read-out: Kd, pH 7.4 Biacore

Row | Compound | Kd [1] [µM] | Kd Ratio 7.4/6.0 (Table 2) | Kd [2] | Kd [3] [µM]
1 | CSCC[C@H](NC(=O)[C@@H](NC(C)=O)C(C)C)C(=O)N[C@@H](Cc1c[nH]cn1)C(=O)N[C@H]1CSSC[C@@H](C(=O)N[C@@H](CC(=O)O)C(=O)N[C@@H](CCC(N)=O)C(=O)N[C@H](C(N)=O)C(C)C)NC(=O)[C@H](CCCCN)NC(=O)[C@H](Cc2ccccc2)NC(=O)[C@H](CCC(=O)O)NC(=O)[C@H](CCC(=O)O)NC(=O)[C@H](CC(=O)O)NC(=O)[C@H](Cc2c[nH]c3ccccc23)NC(=O)[C@H](Cc2ccccc2)NC1=O [SYN1260] (Ac-VMHCFWDEEFKCDQV-NH2; disulfide 4-12 (inferred)) | – | 73 | 0.3 µM | 22
2 | CSCC[C@H](NC(=O)[C@@H](NC(C)=O)C(C)C)C(=O)N[C@@H](Cc1c[nH]cn1)C(=O)N[C@H]1CSSC[C@@H](C(=O)N[C@@H](CC(=O)O)C(=O)N[C@@H](Cc2ccc(O)cc2)C(=O)NCC(N)=O)NC(=O)[C@H](CCCNC(=N)N)NC(=O)[C@H](Cc2ccccc2)NC(=O)[C@H](CCC(=O)O)NC(=O)[C@H](CCC(=O)O)NC(=O)[C@H](CC(=O)O)NC(=O)[C@H](Cc2c[nH]c3ccccc23)NC(=O)[C@H](Cc2ccccc2)NC1=O [SYN1381] (Ac-VMHCFWDEEFRCDYG-NH2; disulfide 4-12 (inferred)) | – | 82 | – | –
3 | CSCC[C@H](NC(=O)[C@H](Cc1ccc(O)cc1)NC(C)=O)C(=O)N[C@H](C(=O)N[C@H]1CSSC[C@@H](C(=O)N[C@@H](CCC(=O)O)C(=O)N[C@@H](Cc2ccc(O)cc2)C(=O)N[C@H](C(N)=O)C(C)C)NC(=O)[C@H](CO)NC(=O)[C@H](Cc2ccccc2)NC(=O)CNC(=O)[C@H](CC(=O)O)NC(=O)[C@H](CC(=O)O)NC(=O)[C@H](Cc2c[nH]c3ccccc23)NC(=O)[C@H](C)NC1=O)[C@@H](C)O [SYN1147] (Ac-YMTCAWDDGFSCEYV-NH2; disulfide 4-12 (inferred)) | – | 56 | – | –
4 | CSCC[C@@H]1NC(=O)[C@H](CCC(=O)O)NC(=O)[C@H](CCC(=O)O)NC(=O)[C@H](CC(=O)O)NC(=O)[C@H](Cc2c[nH]c3ccccc23)NC(=O)[C@H](Cc2c[nH]c3ccccc23)NC(=O)[C@@H](NC(=O)[C@H](CCCCN)NC(=O)[C@H](CCSC)NC(=O)[C@@H](NC(C)=O)C(C)C)CSSC[C@@H](C(=O)N[C@@H](CCCNC(=N)N)C(=O)N[C@@H](C)C(=O)N[C@@H](Cc2ccccc2)C(N)=O)NC(=O)[C@H](CC(C)C)NC1=O [SYN1532] (Ac-VMKCWWDEEMLCRAF-NH2; disulfide 4-12 (inferred)) | – | 112 | – | 17.3
5 | CSCC[C@@H]1NC(=O)[C@H](CCC(=O)O)NC(=O)[C@H](CCC(=O)O)NC(=O)[C@H](CC(=O)O)NC(=O)[C@H](Cc2c[nH]c3ccccc23)NC(=O)[C@H](Cc2c[nH]c3ccccc23)NC(=O)[C@@H](NC(=O)[C@H](CCCCN)NC(=O)[C@H](CCSC)NC(=O)[C@@H](NC(=O)CNC(=O)[C@H](C)NC(C)=O)C(C)C)CSSC[C@@H](C(=O)N[C@@H](CCCNC(=N)N)C(=O)N[C@@H](C)C(=O)N[C@@H](Cc2ccccc2)C(=O)NCC(=O)N[C@H](C(=O)NCC(=O)NCC(=O)NCC(=O)N[C@@H](CCCCN)C(N)=O)[C@@H](C)O)NC(=O)[C@H](CC(C)C)NC1=O [SYN531] (Ac-AGVMKCWWDEEMLCRAFGTGGGK-NH2; disulfide 6-14 (inferred)) | – | 99 | 0.45 µM and 0.3 µM | –
6 | CSCC[C@@H]1NC(=O)[C@H](CCC(=O)O)NC(=O)[C@H](CCC(=O)O)NC(=O)[C@H](CC(=O)O)NC(=O)[C@H](Cc2c[nH]c3ccccc23)NC(=O)[C@H](Cc2ccccc2)NC(=O)[C@@H](NC(=O)[C@H](CCCCN)NC(=O)[C@H](CCSC)NC(=O)[C@@H](NC(C)=O)C(C)C)CSSC[C@@H](C(=O)N[C@@H](CCCNC(=N)N)C(=O)N[C@@H](C)C(=O)N[C@@H](Cc2ccccc2)C(N)=O)NC(=O)[C@H](CC(C)C)NC1=O [SYN1535] (Ac-VMKCFWDEEMLCRAF-NH2; disulfide 4-12 (inferred)) | – | 35 | – | –
7 | CSCC[C@@H]1NC(=O)[C@H](CCC(=O)O)NC(=O)[C@H](CCC(=O)O)NC(=O)[C@H](CC(=O)O)NC(=O)[C@H](Cc2c[nH]c3ccccc23)NC(=O)[C@H](Cc2c[nH]c3ccccc23)NC(=O)[C@@H](NC(=O)[C@H](CCCNC(=N)N)NC(=O)[C@H](CCSC)NC(=O)[C@@H](NC(C)=O)C(C)C)CSSC[C@@H](C(=O)N[C@@H](CCCNC(=N)N)C(=O)N[C@@H](C)C(=O)N[C@@H](Cc2ccccc2)C(N)=O)NC(=O)[C@H](CC(C)C)NC1=O [SYN1534] (Ac-VMRCWWDEEMLCRAF-NH2; disulfide 4-12 (inferred)) | – | 125 | – | –
8 | CSCC[C@H](NC(=O)[C@H](Cc1ccc(O)cc1)NC(C)=O)C(=O)N[C@H](C(=O)N[C@H]1CSSC[C@@H](C(=O)N[C@@H](CCC(=O)O)C(=O)N[C@@H](Cc2ccc(O)cc2)C(=O)N[C@H](C(N)=O)C(C)C)NC(=O)[C@H](CO)NC(=O)[C@H](Cc2ccccc2)NC(=O)[C@H](C)NC(=O)[C@H](CC(=O)O)NC(=O)[C@H](CC(=O)O)NC(=O)[C@H](Cc2c[nH]c3ccccc23)NC(=O)[C@H](CCCCN)NC1=O)[C@@H](C)O [SYN1151] (Ac-YMTCKWDDAFSCEYV-NH2; disulfide 4-12 (inferred)) | – | 25 | 1.5 ± 0.22 µM | –
9 | CSCC[C@H](NC(=O)[C@@H](NC(C)=O)C(C)C)C(=O)N[C@@H](Cc1c[nH]cn1)C(=O)N[C@H]1CSSC[C@@H](C(=O)N[C@@H](CC(=O)O)C(=O)N[C@@H](Cc2ccc(O)cc2)C(=O)NCC(N)=O)NC(=O)[C@H](CCCCN)NC(=O)[C@H](Cc2ccccc2)NC(=O)[C@H](CCC(=O)O)NC(=O)[C@H](CCC(=O)O)NC(=O)[C@H](CC(=O)O)NC(=O)[C@H](Cc2c[nH]c3ccccc23)NC(=O)[C@H](Cc2ccccc2)NC1=O [SYN1259] (Ac-VMHCFWDEEFKCDYG-NH2; disulfide 4-12 (inferred)) | – | 132 | – | 12
10 | CSCC[C@@H]1NC(=O)[C@H](CCC(=O)O)NC(=O)[C@H](CCC(=O)O)NC(=O)[C@H](CC(=O)O)NC(=O)[C@H](Cc2c[nH]c3ccccc23)NC(=O)[C@H](Cc2c[nH]c3ccccc23)NC(=O)[C@@H](NC(=O)[C@H](CCCCN)NC(=O)[C@H](CCSC)NC(=O)[C@@H](NC(C)=O)C(C)C)CSSC[C@@H](C(=O)N[C@@H](CCCNC(=N)N)C(=O)N[C@@H](C)C(=O)N[C@H](C(N)=O)C(C)C)NC(=O)[C@H](CC(C)C)NC1=O [SYN1540 A] (Ac-VMKCWWDEEMLCRAV-NH2; disulfide 4-12) | – | 80 | – | –

Continued, values first:

Row | Kd [1] [µM] | Kd Ratio 7.4/6.0 (Table 2) | Kd [2] | Kd [3] [µM] | Compound
11 | 9.3 | – | – | – | CC(=O)N[C@@H](CCCNC(=N)N)C(=O)N[C@@H](Cc1ccc(O)cc1)C(=O)N[C@@H](Cc1ccccc1)C(=O)N[C@H]1CSSC[C@@H](C(=O)N[C@@H](CCC(=O)O)C(=O)N[C@@H](CCC(=O)O)C(=O)N[C@H](C(N)=O)C(C)C)NC(=O)[C@H](Cc2c[nH]c3ccccc23)NC(=O)CNC(=O)[C@H](Cc2c[nH]cn2)NC(=O)[C@H](CCCCN)NC(=O)[C@H](Cc2c[nH]c3ccccc23)NC(=O)[C@H](CCCCN)NC(=O)[C@H](C)NC1=O [SYN1545] (Ac-RYFCAKWKHGWCEEV-NH2; disulfide 4-12 (inferred))
12 | > 200 | – | – | – | CC(=O)N[C@@H](CCCNC(=N)N)C(=O)N[C@@H](Cc1ccc(O)cc1)C(=O)N[C@@H](Cc1ccccc1)C(=O)N[C@H]1CSSC[C@@H](C(=O)N[C@@H](CCC(=O)O)C(=O)N[C@@H](CCC(=O)O)C(=O)N[C@H](C(N)=O)C(C)C)NC(=O)[C@H](C)NC(=O)CNC(=O)[C@H](Cc2c[nH]cn2)NC(=O)[C@H](CCCCN)NC(=O)[C@H](Cc2c[nH]c3ccccc23)NC(=O)[C@H](CCCCN)NC(=O)[C@H]([C@@H](C)O)NC1=O [SYN1551] (Ac-RYFCTKWKHGACEEV-NH2; disulfide 4-12)
13 | 0.57 | – | – | – | CC(=O)N[C@@H](C)C(=O)NCC(=O)N[C@@H](CCCNC(=N)N)C(=O)N[C@@H](Cc1ccc(O)cc1)C(=O)N[C@@H](Cc1ccccc1)C(=O)N[C@H]1CSSC[C@@H](C(=O)N[C@@H](CCC(=O)O)C(=O)N[C@@H](CCC(=O)O)C(=O)N[C@H](C(=O)NCC(=O)N[C@H](C(=O)NCC(=O)NCC(N)=O)[C@@H](C)O)C(C)C)NC(=O)[C@H](Cc2c[nH]c3ccccc23)NC(=O)CNC(=O)[C@H](Cc2c[nH]cn2)NC(=O)[C@H](CCCCN)NC(=O)[C@H](Cc2c[nH]c3ccccc23)NC(=O)[C@H](CCCCN)NC(=O)[C@H]([C@@H](C)O)NC1=O [SYN1708]
14 | > 100 | – | – | – | CC(=O)N[C@@H](CCCNC(=N)N)C(=O)N[C@@H](Cc1ccc(O)cc1)C(=O)N[C@@H](Cc1ccccc1)C(=O)N[C@H]1CSSC[C@@H](C(=O)N[C@@H](CCC(=O)O)C(=O)N[C@@H](CCC(=O)O)C(=O)N[C@H](C(N)=O)C(C)C)NC(=O)[C@H](Cc2c[nH]c3ccccc23)NC(=O)CNC(=O)[C@H](Cc2c[nH]cn2)NC(=O)[C@H](CCCCN)NC(=O)[C@H](C)NC(=O)[C@H](CCCCN)NC(=O)[C@H]([C@@H](C)O)NC1=O [SYN1547] (Ac-RYFCTKAKHGWCEEV-NH2; disulfide 4-12)
15 | 9.3 | – | – | – | CC(=O)N[C@@H](CCCNC(=N)N)C(=O)N[C@@H](Cc1ccc(O)cc1)C(=O)N[C@@H](Cc1ccccc1)C(=O)N[C@H]1CSSC[C@@H](C(=O)N[C@@H](CCC(=O)O)C(=O)N[C@@H](CCC(=O)O)C(=O)N[C@H](C(N)=O)C(C)C)NC(=O)[C@H](Cc2c[nH]c3ccccc23)NC(=O)CNC(=O)[C@H](Cc2c[nH]cn2)NC(=O)[C@H](C)NC(=O)[C@H](Cc2c[nH]c3ccccc23)NC(=O)[C@H](CCCCN)NC(=O)[C@H]([C@@H](C)O)NC1=O [SYN1548] (Ac-RYFCTKWAHGWCEEV-NH2; disulfide 4-12 (inferred))
